Our source for the TGI values is PubChem BioAssay (NCI).

Usually TGI stands for the concentration at which net growth stops. Read a low TGI as greater sensitivity of the cells.

Each structure is given as a SMILES string.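 These data come from cells grown in 96-well plates and exposed to compound for 48 hours at five concentrations. TGI is the concentration that stops growth completely.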

Test systems include HCT-15 colon; IGROV1 ovarian; KM12 colon; LOX IMVI melanoma; MOLT-4 leukemia; NCI-H23 lung; OVCAR-3 ovarian; SW-620 colon; TK-10 renal; UACC-257 melanoma.
What all share (assay): DTP human tumour cell line panel, 48 h

As to `O=C(c1ccccc1)[C@H]1Nc2cnccc2C2c3ccccc3CC21` (stereo partly drawn), the TGI in the assay on HCT-15 colon was 26.9 µM; in the assay on IGROV1 ovarian it was greater than 58.6 µM; in the assay with KM12 colon, greater than 61.3 µM; with LOX IMVI melanoma, 3.55 µM; in the assay on MOLT-4 leukemia, 23.1 µM; in the assay on NCI-H23 lung it was 30.6 µM. The TGI was 29.7 µM in the assay on OVCAR-3 ovarian, 47.3 µM in the assay with SW-620 colon, greater than 81.9 µM in the assay with TK-10 renal and 26.1 µM with UACC-257 melanoma.

For the compound `O=c1c2cc3c(=O)n(CCc4ccccc4CO)c(=O)c3cc2c(=O)n1CCc1ccccc1CO`, the total growth inhibition concentration (TGI) with HCT-15 colon, in the assay with IGROV1 ovarian, in the assay on KM12 colon, in the assay with LOX IMVI melanoma, in the assay with MOLT-4 leukemia and with NCI-H23 lung was greater than 100 µM throughout. In addition, the concentration for total growth inhibition (TGI) in the assay with OVCAR-3 ovarian, with SW-620 colon, with TK-10 renal and in the assay on UACC-257 melanoma was greater than 100 µM in each case.

As to `COC(=O)C1=C(C(=O)OC)C2(C)CCC(=O)C1O2` (stereo not drawn), the concentration for total growth inhibition (TGI) in the assay with HCT-15 colon, with IGROV1 ovarian, in the assay on KM12 colon, with LOX IMVI melanoma, in the assay with MOLT-4 leukemia and in the assay with NCI-H23 lung was greater than 10 µM throughout. The TGI in the assay on OVCAR-3 ovarian, in the assay on SW-620 colon, in the assay with TK-10 renal and with UACC-257 melanoma was greater than 10 µM each time.

With `CCCC[C@@H]1CCN2C[C@@H](O)[C@@H](O)[C@H]2[C@@H]1O`, the TGI in the assay with HCT-15 colon, in the assay with IGROV1 ovarian, in the assay on KM12 colon, in the assay with LOX IMVI melanoma, in the assay with MOLT-4 leukemia and with NCI-H23 lung was greater than 100 µM each time. In addition, the TGI in the assay with OVCAR-3 ovarian, in the assay on SW-620 colon, with TK-10 renal and in the assay on UACC-257 melanoma was greater than 100 µM throughout.

Regarding `NC(CCSCC(F)F)C(=O)O` (stereo not drawn), the concentration for total growth inhibition (TGI) with HCT-15 colon, in the assay on IGROV1 ovarian, with KM12 colon, in the assay with LOX IMVI melanoma, with MOLT-4 leukemia and in the assay with NCI-H23 lung was greater than 100 µM in each case. The TGI with OVCAR-3 ovarian, in the assay with SW-620 colon, in the assay on TK-10 renal and in the assay with UACC-257 melanoma was greater than 100 µM throughout.

For the compound `Cc1ccsc1C(=S)Nc1ccc(Cl)c(C(=O)OC(C(C)C)C(C)C)c1`, the concentration for total growth inhibition (TGI) is greater than 100 µM in the assay with HCT-15 colon; greater than 100 µM with IGROV1 ovarian; greater than 100 µM in the assay on KM12 colon; 55.3 µM in the assay with LOX IMVI melanoma; 55.6 µM with MOLT-4 leukemia; greater than 100 µM with NCI-H23 lung. Further, the total growth inhibition concentration (TGI) with OVCAR-3 ovarian was 33.5 µM; in the assay with SW-620 colon, 98.8 µM; with TK-10 renal, greater than 100 µM; in the assay on UACC-257 melanoma it was greater than 100 µM.

`COc1cc2c(cc1O)CC[n+]1cc3c(OC)c(OC)ccc3cc1-2`: the TGI in the assay on HCT-15 colon, in the assay on IGROV1 ovarian, in the assay on KM12 colon, in the assay with LOX IMVI melanoma, in the assay on MOLT-4 leukemia and in the assay with NCI-H23 lung was greater than 100 µM each time. Further, the total growth inhibition concentration (TGI) in the assay with OVCAR-3 ovarian, in the assay on SW-620 colon, in the assay with TK-10 renal and with UACC-257 melanoma was greater than 100 µM each time.

Consider `Cc1ccc(C(=O)c2[nH]c(Nc3cc(C)ccn3)c(C(=S)Nc3ccccc3)c2N)cc1`, for which the total growth inhibition concentration (TGI) with HCT-15 colon, in the assay with IGROV1 ovarian, in the assay on KM12 colon, with LOX IMVI melanoma, with MOLT-4 leukemia and with NCI-H23 lung was greater than 100 µM in each case. Moreover, the concentration for total growth inhibition (TGI) in the assay with OVCAR-3 ovarian, with SW-620 colon, with TK-10 renal and in the assay on UACC-257 melanoma was greater than 100 µM in each case.

Take `C(=N/Nc1ccc(-c2nc3ccccc3[nH]2)cc1)/c1c(-c2ccccc2)[nH]c2ccccc12`: the TGI with HCT-15 colon, in the assay on IGROV1 ovarian, with KM12 colon, in the assay with LOX IMVI melanoma, with MOLT-4 leukemia and with NCI-H23 lung was greater than 100 µM in each case. For the same compound, the concentration for total growth inhibition (TGI) is 0.591 µM in the assay with OVCAR-3 ovarian, 75 µM in the assay with SW-620 colon, greater than 100 µM with TK-10 renal and greater than 100 µM in the assay with UACC-257 melanoma.

Consider `COc1cc(-c2c3c(cc4c2OCO4)[C@@H](Nc2ccc4c(c2)Cc2cc(N[C@@H]5c6cc7c(cc6C(c6cc(OC)c(O)c(OC)c6)[C@H]6C(=O)OC[C@H]56)OCO7)ccc2-4)[C@H]2COC(=O)[C@@H]2C3)cc(OC)c1O` (stereo partly drawn), for which the total growth inhibition concentration (TGI) in the assay with HCT-15 colon is greater than 100 µM; in the assay on IGROV1 ovarian, 21.3 µM; in the assay with KM12 colon, greater than 100 µM; in the assay on LOX IMVI melanoma it was greater than 100 µM; with MOLT-4 leukemia it was greater than 100 µM; in the assay on NCI-H23 lung, greater than 100 µM. Moreover, the TGI in the assay on OVCAR-3 ovarian, in the assay with SW-620 colon, with TK-10 renal and in the assay on UACC-257 melanoma was greater than 100 µM each time.

Turning to `N#CC(C#N)=Cc1cccc(Oc2ccccc2)c1`, the TGI with HCT-15 colon was greater than 100 µM; in the assay with IGROV1 ovarian it was 67 µM; in the assay with KM12 colon, 53.2 µM; in the assay with LOX IMVI melanoma, 43.6 µM; in the assay on MOLT-4 leukemia, 78.7 µM; with NCI-H23 lung it was 22 µM. Further, the TGI is 72 µM in the assay with OVCAR-3 ovarian, 58.7 µM in the assay with SW-620 colon, greater than 70.6 µM with TK-10 renal and 28.1 µM in the assay with UACC-257 melanoma.

With `CC12CCC(C/C1=N\NC(N)=O)C2(C)C` (stereo not drawn), the TGI in the assay on HCT-15 colon, in the assay with IGROV1 ovarian, in the assay with KM12 colon, in the assay with LOX IMVI melanoma, in the assay on MOLT-4 leukemia and in the assay with NCI-H23 lung was greater than 100 µM throughout. The concentration for total growth inhibition (TGI) with OVCAR-3 ovarian, in the assay on SW-620 colon, with TK-10 renal and in the assay with UACC-257 melanoma was greater than 100 µM each time.

As to `CN(C)c1nc(=NCc2ccccn2)ss1`, the TGI with HCT-15 colon was greater than 10 µM; in the assay with IGROV1 ovarian, greater than 10 µM; in the assay with KM12 colon, greater than 10 µM; in the assay with LOX IMVI melanoma, 6.46 µM; in the assay on MOLT-4 leukemia, 4.91 µM; in the assay on NCI-H23 lung, greater than 10 µM. Also, the total growth inhibition concentration (TGI) in the assay on OVCAR-3 ovarian, in the assay on SW-620 colon, in the assay on TK-10 renal and in the assay with UACC-257 melanoma was greater than 10 µM each time.

As for `CCOC(=O)C(NC(=O)c1ccc(N=NN(C)C)cc1)C(C)C` (stereo not drawn), the TGI in the assay on HCT-15 colon, in the assay with IGROV1 ovarian, in the assay on KM12 colon, in the assay on LOX IMVI melanoma, with MOLT-4 leukemia and in the assay with NCI-H23 lung was greater than 100 µM throughout. Further, the TGI in the assay with OVCAR-3 ovarian, in the assay on SW-620 colon, with TK-10 renal and in the assay on UACC-257 melanoma was greater than 100 µM in each case.

Regarding `CCOC1NC(=O)c2ccccc21` (stereo not drawn), the TGI in the assay with HCT-15 colon, in the assay on IGROV1 ovarian, in the assay on KM12 colon, in the assay on LOX IMVI melanoma, in the assay on MOLT-4 leukemia and in the assay on NCI-H23 lung was greater than 100 µM throughout. The TGI with OVCAR-3 ovarian, in the assay with SW-620 colon, in the assay with TK-10 renal and with UACC-257 melanoma was greater than 100 µM each time.

`C[C@@H]1C(=O)CC2(O)[C@@]13C[C@@H](OC(=O)[C@@H]3O)[C@@H](C)[C@@]21COC1=O` (stereo partly drawn): the concentration for total growth inhibition (TGI) with HCT-15 colon, in the assay on IGROV1 ovarian, in the assay on KM12 colon, with LOX IMVI melanoma, in the assay on MOLT-4 leukemia and with NCI-H23 lung was greater than 100 µM throughout. The TGI in the assay with OVCAR-3 ovarian, with SW-620 colon, with TK-10 renal and in the assay with UACC-257 melanoma was greater than 100 µM throughout.

With `CC/C=C\C/C=C\C/C=C\CCCCCCCC(=O)OC(COC(=O)CCCCCCCCCCCCCCCCC)COC1OC(CO)C(O)C(O)C1O` (stereo not drawn), the concentration for total growth inhibition (TGI) in the assay on HCT-15 colon, in the assay with IGROV1 ovarian, in the assay with KM12 colon, with LOX IMVI melanoma, in the assay with MOLT-4 leukemia and in the assay on NCI-H23 lung was greater than 25 µM each time. Moreover, the TGI in the assay on OVCAR-3 ovarian, in the assay with SW-620 colon, in the assay on TK-10 renal and with UACC-257 melanoma was greater than 25 µM each time.

Turning to `Brc1ccc2c(c1)-c1nc3c(cc1CC2)CCc1ccc(Br)cc1-3`, the concentration for total growth inhibition (TGI) in the assay on HCT-15 colon, in the assay with IGROV1 ovarian, in the assay with KM12 colon, in the assay with LOX IMVI melanoma, in the assay on MOLT-4 leukemia and in the assay on NCI-H23 lung was greater than 100 µM each time. In addition, the TGI in the assay on OVCAR-3 ovarian, with SW-620 colon, with TK-10 renal and in the assay with UACC-257 melanoma was greater than 100 µM throughout.

Take `Cc1cn(C2CC(OC(c3ccccc3)(c3ccccc3)c3ccccc3)C(COC(c3ccccc3)(c3ccccc3)c3ccccc3)O2)c(=O)[nH]c1=O` (stereo not drawn): the TGI in the assay with HCT-15 colon, in the assay with IGROV1 ovarian, with KM12 colon, with LOX IMVI melanoma, in the assay with MOLT-4 leukemia and in the assay on OVCAR-3 ovarian was greater than 100 µM throughout. Besides, the total growth inhibition concentration (TGI) in the assay with SW-620 colon, in the assay with TK-10 renal and with UACC-257 melanoma was greater than 100 µM in each case.

On to `CCC1(CC)C(=O)NC(=S)N=C1N`, for which the TGI in the assay on HCT-15 colon, in the assay on IGROV1 ovarian, in the assay on LOX IMVI melanoma, in the assay on MOLT-4 leukemia, in the assay with NCI-H23 lung and in the assay on OVCAR-3 ovarian was greater than 100 µM in each case. The total growth inhibition concentration (TGI) in the assay on SW-620 colon, in the assay on TK-10 renal and in the assay on UACC-257 melanoma was greater than 100 µM in each case.
